Experimental findings from patent publication US5070210A, “Novel ketenimines as intermediates for insecticides” (ICI Americas Inc., priority 1990, dated 1991) are described below.

A value given as a limit tells only on which side of the number the result lay.

Common to all, as to format: in vivo
Experiment [1] has as its system Tobacco Budworm [Heliothis virescens (Fabricius)] eggs. Put plainly: Tobacco budworm egg test. The note with it: 2-day old eggs, percent in solution. Summed up:
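Paper-towel patches of 2-day-old eggs dipped in acetone solutions of compound (0.1% downward), held on larval rearing medium at 78° F. Mortality scored once all control eggs had hatched and larvae were feeding; LC50 from dosage-mortality curves, expressed as percent compound in solution.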

For experiment [2], the system named is Beet Armyworm (Spodoptera exigua). Put plainly: Beet armyworm insecticidal test. Conditions: second-instar larvae, percent in solution; five days. On the procedure:
(§1) The compounds in Tables 1 and 2 above were tested for insecticidal activity using the following testing procedures. LC50 values, based on the results of these tests and calculated according to dosage-mortality curves, are expressed in Table 3.
Beet Armyworm (Spodoptera exigua):
Test compounds were diluted in a 50-50 acetone-water solution. Young leaves of sugar beets (Beta vulgaris) were immersed in the test solutions for 2-3 seconds and placed on a wire screen to dry. The dried leaves were placed in petri dishes containing a moistened filter paper and infested with five second-instar beet armyworm larvae. The dishes were placed in a high humidity chamber. Mortality of the larvae was recorded five days later. Test concentrations ranged from 0.1% downward. The LC-50 values are expressed below in Table 3 under the heading "BAW" in terms of percent of the test compound in solution.

The subject of experiment [3] is Cabbage Looper [Trichoplusia ni (Hubner)]. Briefly: Cabbage looper insecticidal test. Conditions: second-instar larvae, percent in solution; 3-5 days. The essentials:
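Squash cotyledons dipped 2-3 s in compound in 50-50 acetone-water, dried, then infested with 5 second-instar larvae and held at high humidity. Mortality scored after 3-5 days at concentrations from 0.1% downward. LC50 from dosage-mortality curves, expressed as percent compound in solution.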

In experiment [4] the test system is Housefly [Musca domestica]. Put plainly: Housefly insecticidal test. Conditions: μg per 25 female flies; mortality after 48 hours. Summed up: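 Acetone solutions (with 0.01% peanut oil) dried onto dish bottoms, then 25 female flies, 1-2 days old, caged over the residue with sugar water. Mortality scored at 48 hours; LC50 from dosage-mortality curves, in μg per 25 female flies, top level 100 μg.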

Experiment [5] concerns Aster Leafhopper [Macrosteles fascifrens (Stal)]. Briefly: Aster leafhopper insecticidal test. The note with it: adults/nymphs, percent in solution; 48 hours. The essentials: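 Three ~10 cm oat seedlings per cup were dipped 2-3 seconds in 50-50 acetone-water compound solutions, dried, and caged with ten adult/nymph leafhoppers. Mortality was counted after 48 hours at concentrations from 0.05% downward. LC50, as percent compound in solution, came from dosage-mortality curves.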

For experiment [6], the system named is Maize weevil [Sitophilus Zeamais (Motschulsky)]. Put plainly: Maize weevil insecticidal test. The note with it: adult weevils, percent in solution; 48 hours. Summed up: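 LC50, in percent of compound in solution, was derived from dosage-mortality curves after 48 h at about 25 °C. Ten adult weevils per container fed on four corn seeds briefly immersed in acetone:water (50:50) solutions of up to 0.01% and dried.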

The test system of experiment [7] is Tobacco Budworm [Heliothis virescens (Fabricius)] larvae. Put plainly: Tobacco budworm contact test. The note with it: second-instar larvae, percent in solution, 5 days. How it is done: as §1
Tobacco Budworm [Heliothis virescens (Fabricius)]:
(a) Contact: Test compounds were diluted in a 50-50 acetone-water solution. Cotton (Gossypium sp.) cotyledons were immersed in the test solutions for 2-3 seconds and placed on a wire screen to dry. The dried leaves were placed in petri dishes containing a moistened piece of filter paper and infested with 5 second-instar tobacco budworm larvae. The dishes were placed in a high humidity chamber for 5 days, and percent mortality of the larvae recorded. Test concentrations ranged from 0.1% downward. The LC-50 values are expressed below in Table 3 under the heading "TBW-C" in terms of percent of the test compound in the solution.

In the case of `CC(C)C(=Nc1cccc(Cl)c1)OCc1cccc(Oc2ccccc2)c1` [Compound 7], in experiment [1], the “LC50, TBW, E (TBW-E)” value is 0.009%. Besides, in experiment [2], the “LC50, BAW” value worked out at 0.006%. Also, in experiment [3], the “LC50, CL” value worked out at 0.006%. Also, the “LC50, HF” value in experiment [4] was determined as 8 µg. Besides, the “LC50, LH” value in experiment [5] turned out to be 0.0002%.

With `CC(C)C(=Nc1ccc(Cl)c(Cl)c1)OCc1cccc(Oc2ccccc2)c1` [Compound 14], the “LC50, BAW” value in experiment [2] was 0.005%. The “LC50, MW” value in experiment [6] turned out to be 0.01%. Moreover, the “LC50, CL” value in experiment [3] came out at 0.004%. Moreover, the “LC50, HF” value in experiment [4] stood at 40 µg. In experiment [5], the “LC50, LH” value was found to be 0.001%.

Turning to `CC(C)C(=Nc1ccc(Cl)cc1)OCc1ccc(F)c(Oc2ccccc2)c1` [Compound 23], the “LC50, TBW, E (TBW-E)” value in experiment [1] turned out to be 0.017%. In addition, in experiment [2], the “LC50, BAW” value was 0.001%. Moreover, the “LC50, CL” value in experiment [3] stood at 0.0005%. In addition, the “LC50, HF” value in experiment [4] is 5 µg.

For `CC(C)C(=Nc1ccc(F)cc1)OCc1cccc(Oc2ccccc2)c1` [Compound 46], the “LC50, TBW, E (TBW-E)” value in experiment [1] was 0.016%. In experiment [2], the “LC50, BAW” value was 0.006%. Besides, the “LC50, CL” value in experiment [3] was determined as 0.003%. In addition, the “LC50, HF” value in experiment [4] is 7 µg. Further, the “LC50, LH” value in experiment [5] was found to be 0.002%.

Consider `CC(C)C(=Nc1cccc(C(F)(F)F)c1)OCc1cccc(Oc2ccccc2)c1` [Compound 67], for which the “LC50, TBW, E (TBW-E)” value in experiment [1] is 0.01%. Also, the “LC50, BAW” value in experiment [2] was 0.006%. Also, the “LC50, CL” value in experiment [3] turned out to be 0.001%. Besides, the “LC50, HF” value in experiment [4] is 15 µg. The “LC50, LH” value in experiment [5] amounted to 0.00027%.

Turning to `O=[N+]([O-])c1cccc(N=C(OCc2cccc(Oc3ccccc3)c2)C(Cl)Cl)c1` [Compound 174], the “LC50, TBW, E (TBW-E)” value in experiment [1] was more than 0.1%. For the same molecule, in experiment [2], the “LC50, BAW” value amounted to 0.1%. In addition, the “LC50, CL” value in experiment [3] is on record as 0.03%. The “LC50, HF” value in experiment [4] stood at 17 µg.

For the molecule `CC(C)C(=Nc1ccc(F)c(Cl)c1)OCc1cccc(Oc2ccccc2)n1` [Compound 462], the “LC50, TBW, C (TBW-C)” value in experiment [7] is 0.0025%. Also, in experiment [1], the “LC50, TBW, E (TBW-E)” value was determined as 0.04%. Also, in experiment [6], the “LC50, MW” value is recorded as more than 0.05%. Moreover, the “LC50, CL” value in experiment [3] came out at 0.001%. Moreover, the “LC50, HF” value in experiment [4] is 7 µg. Moreover, the “LC50, LH” value in experiment [5] worked out at 0.001%.

As to `C#CCc1c(F)c(F)c(COC(=Nc2ccc(F)c(Cl)c2)C(C)C)c(F)c1F` [Compound 520], the “LC50, TBW, C (TBW-C)” value in experiment [7] is 0.00075%. In experiment [1], the “LC50, TBW, E (TBW-E)” value is given as more than 0.1%. In experiment [6], the “LC50, MW” value is given as 0.0042%. For the same molecule, the “LC50, CL” value in experiment [3] is more than 0.1%. The “LC50, HF” value in experiment [4] was determined as 5.5 µg. For the same molecule, the “LC50, LH” value in experiment [5] came out at 0.0003%.

For the molecule `CC(C)C(=Nc1ccc(F)c(Cl)c1F)OCc1cccc(Oc2ccc(F)cc2)n1` [Compound 521], in experiment [7], the “LC50, TBW, C (TBW-C)” value is listed as 0.0005%. The “LC50, TBW, E (TBW-E)” value in experiment [1] was more than 0.1%. For the same molecule, the “LC50, MW” value in experiment [6] is reported as 0.01%. Also, in experiment [3], the “LC50, CL” value is given as 0.00005%. Besides, in experiment [4], the “LC50, HF” value is 7.5 µg. The “LC50, LH” value in experiment [5] is recorded as 0.05%.

Turning to `CC(C)C(=Nc1ccc(Cl)c(Cl)c1)OCc1cccc(Oc2ccc(Cl)cc2)n1` [Compound 523], in experiment [7], the “LC50, TBW, C (TBW-C)” value is reported as 0.0002%. For the same molecule, the “LC50, TBW, E (TBW-E)” value in experiment [1] is given as more than 0.1%. Also, the “LC50, MW” value in experiment [6] is more than 0.01%. Also, the “LC50, CL” value in experiment [3] stood at 0.00015%. For the same molecule, in experiment [4], the “LC50, HF” value is 22 µg. Also, the “LC50, LH” value in experiment [5] is more than 0.05%.

On to `CC(C)C(=Nc1ccc(C(F)(F)F)cc1)OCc1cccc(Oc2ccc(Cl)cc2)n1` [Compound 530], for which the “LC50, TBW, C (TBW-C)” value in experiment [7] worked out at 0.00005%. In addition, the “LC50, TBW, E (TBW-E)” value in experiment [1] is given as 0.005%. For the same molecule, in experiment [6], the “LC50, MW” value is listed as more than 0.01%. Moreover, the “LC50, CL” value in experiment [3] is reported as 0.00027%. The “LC50, HF” value in experiment [4] is 9.8 µg. Moreover, the “LC50, LH” value in experiment [5] is 0.05%.

In the case of `CC(C)C(=Nc1ccc(F)c(Cl)c1)OCc1cccc(Oc2ccc(F)c(F)c2)n1` [Compound 531], the “LC50, TBW, C (TBW-C)” value in experiment [7] came to 0.00037%. The “LC50, TBW, E (TBW-E)” value in experiment [1] is reported as more than 0.1%. In addition, in experiment [6], the “LC50, MW” value is more than 0.01%. The “LC50, CL” value in experiment [3] is reported as more than 0.1%. For the same molecule, in experiment [4], the “LC50, HF” value is 5 µg. Moreover, the “LC50, LH” value in experiment [5] was more than 0.05%.
